Assay results: the NIST ThermoML archive (doi:10.1021/acs.jced.6b00577)

Conditions: Liquid, Frequency=8 MHz, Pulse-echo method

CCCC [butane]
Conditions | speed of sound [m/s]
320 K, 1101.2 kPa | 790.66
320 K, 2101.9 kPa | 805.08
320 K, 2104.1 kPa | 805.16
320 K, 3102.5 kPa | 818.93
320 K, 3104.8 kPa | 819.01
320 K, 4103.2 kPa | 832.27
320 K, 4105.5 kPa | 832.35
320 K, 5103.8 kPa | 845.16
320 K, 5106.1 kPa | 845.24
320 K, 6106.8 kPa | 857.71
320 K, 7107.5 kPa | 869.8
320 K, 8108.2 kPa | 881.54
320 K, 9108.9 kPa | 892.95
320 K, 10109 kPa | 904.04
320 K, 10110 kPa | 904.07
320 K, 12611 kPa | 930.65
320 K, 15113 kPa | 955.74
320 K, 17615 kPa | 979.54
320 K, 20116 kPa | 1002.2
320 K, 25120 kPa | 1044.7
320 K, 30123 kPa | 1084
320 K, 35127 kPa | 1120.6
320 K, 40130 kPa | 1155
320 K, 45134 kPa | 1187.5
320 K, 50137 kPa | 1218.4
320 K, 50138 kPa | 1218.4
320 K, 60144 kPa | 1276.1
320 K, 70152 kPa | 1329.2
320 K, 80158 kPa | 1378.5
320 K, 90166 kPa | 1424.7
320 K, 100173 kPa | 1468.2
340 K, 1100.4 kPa | 678.12
340 K, 2101.1 kPa | 696.22
340 K, 2103.7 kPa | 696.27
340 K, 3101.7 kPa | 713.3
340 K, 3104.3 kPa | 713.36
340 K, 4102.4 kPa | 729.53
340 K, 4105 kPa | 729.59
340 K, 5102.9 kPa | 745.01
340 K, 5105.6 kPa | 745.07
340 K, 6106.2 kPa | 759.88
340 K, 7106.8 kPa | 774.1
340 K, 8107.5 kPa | 787.79
340 K, 9108.1 kPa | 801.01
340 K, 10106 kPa | 813.73
340 K, 10108 kPa | 813.77
340 K, 12610 kPa | 844.03
340 K, 15112 kPa | 872.22
340 K, 17614 kPa | 898.7
340 K, 20116 kPa | 923.7
340 K, 25119 kPa | 970.09
340 K, 30123 kPa | 1012.5
340 K, 35126 kPa | 1051.8
340 K, 40130 kPa | 1088.5
340 K, 45133 kPa | 1122.9
340 K, 50136 kPa | 1155.5
340 K, 60145 kPa | 1216
340 K, 70152 kPa | 1271.4
340 K, 80159 kPa | 1322.7
340 K, 90166 kPa | 1370.5
340 K, 100173 kPa | 1415.5
360 K, 2100.8 kPa | 582.29
360 K, 2103.9 kPa | 582.37
360 K, 3101.4 kPa | 604.48
360 K, 3104.6 kPa | 604.56
360 K, 4102 kPa | 625
360 K, 4102.1 kPa | 625
360 K, 4105.4 kPa | 625.09
360 K, 5102.6 kPa | 644.17
360 K, 5103 kPa | 644.18
360 K, 5106.1 kPa | 644.25
360 K, 6106.9 kPa | 662.28
360 K, 7107.6 kPa | 679.33
360 K, 8108.4 kPa | 695.54
360 K, 9109.1 kPa | 711.01
360 K, 10110 kPa | 725.83
360 K, 12612 kPa | 760.45
360 K, 15113 kPa | 792.21
360 K, 17615 kPa | 821.66
360 K, 20117 kPa | 849.23
360 K, 25120 kPa | 899.75
360 K, 30124 kPa | 945.47
360 K, 35128 kPa | 987.41
360 K, 40131 kPa | 1026.3
360 K, 45135 kPa | 1062.7
360 K, 50138 kPa | 1096.9
360 K, 60145 kPa | 1160.2
360 K, 70152 kPa | 1217.7
360 K, 80159 kPa | 1270.8
360 K, 90166 kPa | 1320.2
360 K, 100173 kPa | 1366.5
380 K, 2103.2 kPa | 456.13
380 K, 3104.2 kPa | 488.08
380 K, 4105 kPa | 515.93
380 K, 5105.8 kPa | 540.88
380 K, 6106.7 kPa | 563.62
380 K, 7107.5 kPa | 584.62
380 K, 8108.3 kPa | 604.2
380 K, 9109.1 kPa | 622.6
380 K, 10110 kPa | 639.98
380 K, 12611 kPa | 679.85
380 K, 15113 kPa | 715.71
380 K, 17614 kPa | 748.49
380 K, 20116 kPa | 778.8
380 K, 25120 kPa | 833.69
380 K, 30123 kPa | 882.73
380 K, 35127 kPa | 927.32
380 K, 40132 kPa | 968.4
380 K, 45135 kPa | 1006.6
380 K, 50139 kPa | 1042.4
380 K, 60146 kPa | 1108.3
380 K, 70153 kPa | 1167.9
380 K, 80160 kPa | 1222.7
380 K, 90167 kPa | 1273.5
380 K, 100174 kPa | 1321.1
400 K, 2704.8 kPa | 329.55
400 K, 3105.1 kPa | 351.68
400 K, 4105.8 kPa | 396.18
400 K, 5106.4 kPa | 431.84
400 K, 6107 kPa | 462.27
400 K, 7107.7 kPa | 489.16
400 K, 8108.4 kPa | 513.44
400 K, 9109.4 kPa | 535.71
400 K, 10110 kPa | 556.36
400 K, 12612 kPa | 602.56
400 K, 15114 kPa | 643.08
400 K, 17616 kPa | 679.47
400 K, 20118 kPa | 712.7
400 K, 25121 kPa | 772.06
400 K, 30125 kPa | 824.41
400 K, 35128 kPa | 871.59
400 K, 40132 kPa | 914.76
400 K, 45135 kPa | 954.73
400 K, 50138 kPa | 992.04
400 K, 60145 kPa | 1060.3
400 K, 70152 kPa | 1121.8
400 K, 80159 kPa | 1178.1
400 K, 90166 kPa | 1230.3
400 K, 100173 kPa | 1278.9
420 K, 4104.4 kPa | 244.51
420 K, 4455.2 kPa | 271.52
420 K, 4605 kPa | 281.85
420 K, 4955.6 kPa | 302.47
420 K, 5105.1 kPa | 310.48
420 K, 5456.1 kPa | 327.76
420 K, 5605.7 kPa | 334.63
420 K, 6105.8 kPa | 355.8
420 K, 6606.5 kPa | 374.83
420 K, 7106.5 kPa | 392.2
420 K, 8107.2 kPa | 423.27
420 K, 9108 kPa | 450.7
420 K, 10109 kPa | 475.45
420 K, 12611 kPa | 529.12
420 K, 15112 kPa | 574.77
420 K, 17615 kPa | 614.98
420 K, 20117 kPa | 651.2
420 K, 25120 kPa | 714.99
420 K, 30124 kPa | 770.53
420 K, 35127 kPa | 820.17
420 K, 40131 kPa | 865.3
420 K, 45134 kPa | 906.89
420 K, 50138 kPa | 945.57
420 K, 55142 kPa | 981.83
420 K, 60145 kPa | 1016
420 K, 70152 kPa | 1079.3
420 K, 80159 kPa | 1137
420 K, 90166 kPa | 1190.3
420 K, 100173 kPa | 1240
430 K, 5105.6 kPa | 236.47
430 K, 5355.3 kPa | 258.17
430 K, 5606 kPa | 273.03
430 K, 5855.6 kPa | 287.25
430 K, 6106.3 kPa | 300.07
430 K, 6356.3 kPa | 311.9
430 K, 6606.6 kPa | 323.01
430 K, 7106.8 kPa | 343.37
430 K, 7106.9 kPa | 343.37
430 K, 7607.2 kPa | 361.85
430 K, 8107.5 kPa | 378.83
430 K, 8607.8 kPa | 394.6
430 K, 9108.1 kPa | 409.36
430 K, 9608.5 kPa | 423.28
430 K, 10109 kPa | 436.47
430 K, 11110 kPa | 461
430 K, 12110 kPa | 483.55
430 K, 13111 kPa | 504.47
430 K, 14112 kPa | 524.06
430 K, 15113 kPa | 542.49
430 K, 17614 kPa | 584.59
430 K, 20116 kPa | 622.27
